Structures can show the parent of a compound that is named as a salt.
Tests used:
[1] = target: T1, Extracellular calcium-sensing receptor (Homo sapiens, UniProt P41180); experiment: Agonist activity at human CaSR expressed in CHO cells assessed as increase in intracellular calcium mobilization after 1 hr by Fura-2 dye-based fluorescence assay; type: functional, cell-based
T1 sequence (P41180 whole entry): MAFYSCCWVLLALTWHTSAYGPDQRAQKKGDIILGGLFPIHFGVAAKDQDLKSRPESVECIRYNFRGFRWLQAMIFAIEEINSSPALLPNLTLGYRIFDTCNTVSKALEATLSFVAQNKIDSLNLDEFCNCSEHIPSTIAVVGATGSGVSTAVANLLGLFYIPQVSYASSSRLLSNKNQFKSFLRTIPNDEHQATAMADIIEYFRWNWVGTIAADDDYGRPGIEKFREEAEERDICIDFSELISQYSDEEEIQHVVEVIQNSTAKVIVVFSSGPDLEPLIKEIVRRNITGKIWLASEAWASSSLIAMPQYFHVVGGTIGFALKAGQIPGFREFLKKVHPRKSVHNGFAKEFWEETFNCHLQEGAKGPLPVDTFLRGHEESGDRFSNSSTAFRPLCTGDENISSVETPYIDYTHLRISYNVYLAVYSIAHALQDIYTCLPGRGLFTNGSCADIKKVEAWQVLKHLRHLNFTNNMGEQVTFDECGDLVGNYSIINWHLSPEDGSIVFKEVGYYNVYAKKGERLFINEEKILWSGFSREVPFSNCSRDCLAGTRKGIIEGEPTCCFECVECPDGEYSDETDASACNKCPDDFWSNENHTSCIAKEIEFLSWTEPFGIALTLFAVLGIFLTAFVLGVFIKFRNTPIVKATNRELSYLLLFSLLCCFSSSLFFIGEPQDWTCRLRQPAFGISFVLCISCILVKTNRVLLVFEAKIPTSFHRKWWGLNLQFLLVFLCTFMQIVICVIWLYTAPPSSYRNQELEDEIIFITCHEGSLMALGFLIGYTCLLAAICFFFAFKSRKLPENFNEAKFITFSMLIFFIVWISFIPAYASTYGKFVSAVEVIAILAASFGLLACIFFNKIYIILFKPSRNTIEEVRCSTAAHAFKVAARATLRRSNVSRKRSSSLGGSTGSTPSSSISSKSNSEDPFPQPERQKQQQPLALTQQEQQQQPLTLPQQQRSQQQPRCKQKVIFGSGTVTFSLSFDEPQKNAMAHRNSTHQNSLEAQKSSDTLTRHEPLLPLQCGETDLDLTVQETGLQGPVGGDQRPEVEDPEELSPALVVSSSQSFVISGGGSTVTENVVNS

[2] = target: T2, CYP2D6 (Homo sapiens, UniProt P10635); experiment: Inhibition of CYP2D6 (unknown origin) at 1 uM relative to control; type: ADME
[3] = Intrinsic clearance in rat liver microsomes assessed per protein; type: ADME, microsome; conditions: read-out: CLH
[4] = Intrinsic clearance in human liver microsomes assessed per protein; type: ADME, microsome; conditions: read-out: CLH
[5] = target: T3, Extracellular calcium-sensing receptor (Rattus norvegicus, UniProt P48442); experiment: Agonist activity at CaSR in rat parathyroid cells assessed as inhibition of PTH (1 to 84 residues) production in presence of Cacl2 by ELISA; type: functional, cell-based
T3 sequence (P48442 whole entry): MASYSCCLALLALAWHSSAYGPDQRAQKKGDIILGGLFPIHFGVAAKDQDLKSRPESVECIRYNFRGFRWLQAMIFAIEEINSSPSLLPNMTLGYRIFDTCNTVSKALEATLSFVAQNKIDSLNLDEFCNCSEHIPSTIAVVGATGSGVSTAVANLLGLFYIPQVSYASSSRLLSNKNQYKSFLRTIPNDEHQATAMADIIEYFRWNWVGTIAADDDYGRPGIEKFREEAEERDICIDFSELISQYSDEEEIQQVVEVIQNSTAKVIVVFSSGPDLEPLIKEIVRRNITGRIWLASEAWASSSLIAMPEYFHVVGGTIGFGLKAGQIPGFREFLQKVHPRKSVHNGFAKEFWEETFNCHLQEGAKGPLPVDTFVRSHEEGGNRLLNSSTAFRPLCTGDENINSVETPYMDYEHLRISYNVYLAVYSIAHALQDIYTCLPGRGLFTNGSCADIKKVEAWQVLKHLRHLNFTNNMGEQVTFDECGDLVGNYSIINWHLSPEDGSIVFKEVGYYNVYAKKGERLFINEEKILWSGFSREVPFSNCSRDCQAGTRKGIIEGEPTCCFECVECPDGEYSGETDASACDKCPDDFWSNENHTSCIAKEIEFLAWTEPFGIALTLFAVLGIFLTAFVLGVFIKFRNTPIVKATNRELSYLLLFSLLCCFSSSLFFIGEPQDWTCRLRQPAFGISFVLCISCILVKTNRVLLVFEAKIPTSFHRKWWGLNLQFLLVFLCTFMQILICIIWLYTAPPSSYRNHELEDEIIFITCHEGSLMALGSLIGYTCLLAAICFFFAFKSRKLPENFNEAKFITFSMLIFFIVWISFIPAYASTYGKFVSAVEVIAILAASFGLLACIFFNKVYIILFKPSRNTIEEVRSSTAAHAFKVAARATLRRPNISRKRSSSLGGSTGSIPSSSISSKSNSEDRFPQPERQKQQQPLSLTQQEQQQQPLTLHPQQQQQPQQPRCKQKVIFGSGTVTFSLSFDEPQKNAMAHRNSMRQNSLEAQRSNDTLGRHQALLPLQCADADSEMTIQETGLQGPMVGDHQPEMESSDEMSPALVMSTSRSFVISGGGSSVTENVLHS

[6] = target: T2, CYP2D6; experiment: Inhibition of CYP2D6 (unknown origin) at 0.1 uM relative to control; type: ADME
[7] = target: T2, CYP2D6; experiment: Inhibition of CYP2D6 (unknown origin) at 10 uM relative to control; type: ADME
[8] = target: Cytochrome P450 2D6 (Homo sapiens, UniProt P10635); experiment: Inhibition of recombinant human CYP2D6 expressed in bacterial membranes using AMMC as substrate preincubated for 10 mins followed by NADPH addition measured after 30 mins by fluorescence assay; type: ADME, cell membranes
Sequence of Cytochrome P450 2D6 (P10635 whole entry): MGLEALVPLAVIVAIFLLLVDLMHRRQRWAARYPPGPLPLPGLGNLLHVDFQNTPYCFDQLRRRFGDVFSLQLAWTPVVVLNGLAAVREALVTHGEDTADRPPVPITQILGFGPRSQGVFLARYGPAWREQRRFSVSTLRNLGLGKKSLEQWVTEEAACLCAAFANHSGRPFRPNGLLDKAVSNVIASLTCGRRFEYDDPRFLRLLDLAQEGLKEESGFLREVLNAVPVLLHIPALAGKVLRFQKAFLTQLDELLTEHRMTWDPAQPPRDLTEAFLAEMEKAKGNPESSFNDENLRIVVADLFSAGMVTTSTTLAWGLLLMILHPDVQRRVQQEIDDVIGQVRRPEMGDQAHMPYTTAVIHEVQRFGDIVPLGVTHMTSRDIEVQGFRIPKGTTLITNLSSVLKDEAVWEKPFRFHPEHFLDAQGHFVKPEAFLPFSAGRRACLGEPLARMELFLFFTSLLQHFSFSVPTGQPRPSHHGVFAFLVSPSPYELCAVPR

T2 sequence (P10635 whole entry): as above

Structure (SMILES)	EC50 [1] [nM]	inhibition at 1 µM [2] [%]	microsomal CLint [3] [µL/min/mg]	microsomal CLint [4] [µL/min/mg]	IC50 [5] [nM]	inhibition at 0.1 µM [6] [%]	inhibition at 10 µM [7] [%]	IC50 [8] [nM]
C[C@@H](N[C@@H]1CCN(c2cccc(OC(F)(F)F)c2)C1)c1cccc2ccccc12	320	61.2	270	206	4.3	15.8		
C[C@@H](N[C@H]1CCCN(c2cccc(OC(F)(F)F)c2)C1)c1cccc2ccccc12	600	86.4	442	225	31.8	79	92.5	
C[C@@H](N[C@@H]1CCN(c2ccc(OC(F)(F)F)cc2)C1)c1cccc2ccccc12	230				116			
C[C@@H](N[C@@H]1CCN(c2ccc(C(=O)O)cc2)C1)c1cccc2ccccc12	8800							
C[C@@H](N[C@@H]1CCN(c2cccc(C(F)(F)F)c2)C1)c1cccc2ccccc12	430	60	302	421	9.7	3		
C[C@@H](NCCCc1cccc(C(F)(F)F)c1)c1cccc2ccccc12 [CINACALCET HYDROCHLORIDE]	180							< 100
C[C@@H](N[C@H]1CCN(c2cccc(OC(F)(F)F)c2)C1)c1cccc2ccccc12	600	88.4	176	84	11.7	85.9		
C[C@@H](N[C@@H]1CCCN(c2cccc(C(F)(F)F)c2)C1)c1cccc2ccccc12	380	78.7	610	662	2.1	54.8	87.6	
C[C@@H](N[C@H]1CCN(c2ccc(OC(F)(F)F)cc2)C1)c1cccc2ccccc12	120	62.5			7.8	15.8	79.8	
C[C@@H](N[C@H]1CCN(c2ccc(-c3nn[nH]n3)cc2)C1)c1cccc2ccccc12	17		42	312	0.47		75.3	
C[C@@H](N[C@H]1CCN(c2ccc(C(=O)O)cc2)C1)c1cccc2ccccc12		14.1	92	97	8	0	14.1	
C[C@@H](N[C@H]1CCN(c2cccc(C(F)(F)F)c2)C1)c1cccc2ccccc12	450	87.5	370	171	13.1	85.1		
C[C@@H](N[C@H]1CCN(c2ccc(C(=O)NCCO)cc2)C1)c1cccc2ccccc12	50	3.4	667	197	0.91	4.4	30.7	
C[C@@H](N[C@@H]1CCCN(c2cccc(OC(F)(F)F)c2)C1)c1cccc2ccccc12	190	82.6	231	370	1.4	54	85.2	
C[C@@H](N[C@H]1CCCN(c2ccc(C(=O)O)cc2)C1)c1cccc2ccccc12	1100				> 100			
